Test results reported in PubChem BioAssay (NCI).
Values joined by “and” are separate entries in the source; they are usually repeats but may differ in a detail not shown here. Identical values can stand only once.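 Step 1: Grow cells in 96-well plates. Step 2: Expose to compound for 48 hours at 5 concentrations. Step 3: Interpolate endpoints linearly; if unreached, use highest concentration. GI50 = concentration required for 50% inhibition of growth. The concentration for full growth arrest is given as TGI.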

Key:
Test in all cases: NCI tumour cell line growth inhibition, 48 h
A549 NSCLC = test system: A549 NSCLC
CCRF-CEM leukemia = test system: CCRF-CEM leukemia
DU-145 prostate = test system: DU-145 prostate
KM12 colon = test system: KM12 colon
NCI-H226 lung = test system: NCI-H226 lung
PC-3 prostate = test system: PC-3 prostate
SF-539 CNS = test system: SF-539 CNS
SN12C renal = test system: SN12C renal
SNB-19 CNS = test system: SNB-19 CNS

COc1ccc(N=NC(=O)NC(CC(C)C)C(=O)NCC(=O)O)cc1 (stereo not drawn)
TGI (A549 NSCLC): > 61.9 µM
TGI (CCRF-CEM leukemia): > 100 µM
TGI (DU-145 prostate): > 100 µM
TGI (KM12 colon): > 100 µM
TGI (NCI-H226 lung): 99 µM
TGI (PC-3 prostate): > 100 µM
TGI (SF-539 CNS): 29.7 µM
TGI (SN12C renal): > 100 µM
TGI (SNB-19 CNS): > 100 µM

CCOC(=O)c1nc2ccc(C(F)(F)F)cc2nc1NCc1ccc(OC)c(OC)c1
TGI (A549 NSCLC): > 100 µM
TGI (CCRF-CEM leukemia): > 100 µM
TGI (KM12 colon): > 100 µM
TGI (NCI-H226 lung): > 100 µM
TGI (PC-3 prostate): > 100 µM
TGI (SF-539 CNS): > 100 µM
TGI (SNB-19 CNS): > 100 µM

COc1cccc(C2c3cc4c(cc3OC(NNS(=O)(=O)c3ccc(C)cc3)C2C)OCO4)c1OC (stereo not drawn)
TGI (A549 NSCLC): 11.4 µM
TGI (CCRF-CEM leukemia): 5.31 µM
TGI (DU-145 prostate): 7.61 µM
TGI (KM12 colon): 13.5 µM
TGI (NCI-H226 lung): 13.1 µM
TGI (PC-3 prostate): 92.4 µM
TGI (SF-539 CNS): 11.9 µM
TGI (SN12C renal): 35.3 µM
TGI (SNB-19 CNS): 86.6 µM

CCOC(=O)/C(=N/Nc1ccccc1)N1C(=S)C=C(C)NN(C)C1=S
TGI (A549 NSCLC): > 100 µM
TGI (CCRF-CEM leukemia): > 100 µM
TGI (DU-145 prostate): > 100 µM
TGI (KM12 colon): > 100 µM
TGI (SF-539 CNS): > 100 µM
TGI (SN12C renal): > 100 µM
TGI (SNB-19 CNS): > 100 µM

COc1ccc(COC(=O)NCC(=O)NC(C)C(=O)NC(Cc2ccccc2)C(=O)OCc2ccccc2)cc1 (stereo not drawn)
GI50 (A549 NSCLC): 18.8 µM and > 100 µM
TGI (A549 NSCLC): 41.2 µM and > 100 µM
TGI (CCRF-CEM leukemia): > 100 µM and 43.9 µM
GI50 (DU-145 prostate): 31.1 µM and > 100 µM
TGI (DU-145 prostate): > 100 µM
GI50 (KM12 colon): 62.8 µM and 23.9 µM
TGI (KM12 colon): > 100 µM and 46.3 µM
TGI (NCI-H226 lung): 55.9 µM and 85.6 µM
GI50 (PC-3 prostate): 20 µM and > 100 µM
TGI (PC-3 prostate): 47.8 µM and > 100 µM
GI50 (SF-539 CNS): 12.6 µM and 28.7 µM
TGI (SF-539 CNS): 25.1 µM and > 100 µM
TGI (SN12C renal): > 100 µM and 51.9 µM
GI50 (SNB-19 CNS): 21.5 µM and > 100 µM
TGI (SNB-19 CNS): 41.1 µM and > 100 µM

Clc1ccc(CCN[C@H]2CCCC[C@H]2N2CCCC2)cc1Cl
TGI (A549 NSCLC): 89.6 µM
TGI (CCRF-CEM leukemia): > 100 µM
TGI (DU-145 prostate): 59.8 µM
TGI (KM12 colon): 35.1 µM
TGI (NCI-H226 lung): 48.7 µM
TGI (PC-3 prostate): > 100 µM
TGI (SF-539 CNS): 75.3 µM
TGI (SN12C renal): 54.3 µM
TGI (SNB-19 CNS): 69.5 µM

CC(=O)O[C@H]1C(=O)[C@@]2(C)[C@H]([C@H](OC(=O)c3ccccc3)[C@]3(O)C[C@H](OC(=O)[C@H](O)[C@@H](NC(=O)c4ccco4)c4ccccc4)C(C)=C1C3(C)C)[C@]1(OC(C)=O)CO[C@@H]1C[C@@H]2O
TGI (A549 NSCLC): > 12.5 µM
TGI (CCRF-CEM leukemia): 0.0073 µM
TGI (DU-145 prostate): > 12.5 µM
TGI (KM12 colon): > 12.5 µM
TGI (PC-3 prostate): > 12.5 µM
TGI (SF-539 CNS): 0.00454 µM
TGI (SNB-19 CNS): > 12.5 µM

O=Cc1cc(C(=O)OCc2ccccc2)n(S(=O)(=O)c2ccccc2)c1
TGI (A549 NSCLC): 68.7 µM
TGI (CCRF-CEM leukemia): > 100 µM
TGI (DU-145 prostate): > 100 µM
TGI (KM12 colon): 37.6 µM
TGI (PC-3 prostate): 53.6 µM
TGI (SF-539 CNS): 28.6 µM
TGI (SN12C renal): 66.1 µM
TGI (SNB-19 CNS): > 100 µM

CCCc1cc(COC)c(C#N)c(=O)[nH]1
TGI (A549 NSCLC): > 100 µM
TGI (CCRF-CEM leukemia): > 100 µM
TGI (DU-145 prostate): > 100 µM
TGI (KM12 colon): > 100 µM
TGI (NCI-H226 lung): > 100 µM
TGI (PC-3 prostate): > 100 µM
TGI (SF-539 CNS): > 100 µM
TGI (SN12C renal): > 100 µM
TGI (SNB-19 CNS): > 100 µM

[B-][P+](CC[P+]1([B-])[C@@H](C)[C@@H](O)[C@H](O)[C@@H]1C)(c1ccccc1)c1ccccc1OC (stereo partly drawn)
TGI (A549 NSCLC): 28.8 µM
TGI (CCRF-CEM leukemia): 46.4 µM
TGI (DU-145 prostate): 33.7 µM
TGI (KM12 colon): 33.1 µM
TGI (NCI-H226 lung): 31.8 µM
TGI (PC-3 prostate): 35.6 µM
TGI (SF-539 CNS): 31.6 µM
TGI (SN12C renal): 26.2 µM
TGI (SNB-19 CNS): 30.9 µM

CC(C)CC(N)C(=O)Nc1ccc2ccccc2c1 (stereo not drawn)
TGI (A549 NSCLC): > 100 µM
TGI (CCRF-CEM leukemia): > 100 µM
TGI (DU-145 prostate): > 100 µM
TGI (KM12 colon): > 100 µM
TGI (NCI-H226 lung): > 100 µM
TGI (PC-3 prostate): > 100 µM
TGI (SF-539 CNS): > 100 µM
TGI (SN12C renal): > 100 µM
TGI (SNB-19 CNS): > 100 µM
